In patent publication US10323038B2, “Pyrazole compounds and methods of making and using same” (ABIDE THERAPEUTICS, INC., priority 2015, dated 2019):

Experiments:
[1] = biological target: MAGL (Mus musculus (Mouse), UniProt O35678); assay: In vitro competitive activity-based protein profiling, MAGL (mouse); type: biochemical; conditions: for inhibition at 1 µM: read-out: MAGL % inh. 1 μM (mouse)
Procedure, shortened: (§1)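 Residual MAGL and FAAH activity came from in-gel fluorescence after competition between inhibitor (30 min preincubation, 37° C) and the activity-based probe FP-Rh or HT-01 (30 min, 37° C) in mouse or human tissue or cell proteomes.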

[2] = biological target: FAAH (Mus musculus (Mouse), UniProt O08914); assay: In vitro competitive activity-based protein profiling, FAAH (mouse); type: biochemical; conditions: for inhibition at 1 µM: read-out: FAAH % inh. 1 μM (mouse)
Procedure, shortened: as §1

Chain of FAAH (O08914 whole entry): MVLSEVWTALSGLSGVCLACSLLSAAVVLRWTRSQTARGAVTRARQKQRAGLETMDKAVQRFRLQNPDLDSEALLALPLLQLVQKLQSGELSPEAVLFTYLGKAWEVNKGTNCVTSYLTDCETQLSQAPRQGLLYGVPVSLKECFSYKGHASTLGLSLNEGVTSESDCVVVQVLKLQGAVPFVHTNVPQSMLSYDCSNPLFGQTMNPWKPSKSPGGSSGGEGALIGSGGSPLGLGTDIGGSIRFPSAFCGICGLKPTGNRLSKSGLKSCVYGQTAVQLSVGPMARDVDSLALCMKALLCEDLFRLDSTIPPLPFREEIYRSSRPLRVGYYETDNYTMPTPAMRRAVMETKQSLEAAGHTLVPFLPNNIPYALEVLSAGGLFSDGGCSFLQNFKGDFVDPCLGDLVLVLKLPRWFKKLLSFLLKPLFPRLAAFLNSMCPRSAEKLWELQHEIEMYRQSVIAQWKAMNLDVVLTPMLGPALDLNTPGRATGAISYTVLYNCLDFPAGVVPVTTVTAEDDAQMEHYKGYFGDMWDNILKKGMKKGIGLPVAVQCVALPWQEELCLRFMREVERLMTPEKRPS
Chain of MAGL (O35678 whole entry): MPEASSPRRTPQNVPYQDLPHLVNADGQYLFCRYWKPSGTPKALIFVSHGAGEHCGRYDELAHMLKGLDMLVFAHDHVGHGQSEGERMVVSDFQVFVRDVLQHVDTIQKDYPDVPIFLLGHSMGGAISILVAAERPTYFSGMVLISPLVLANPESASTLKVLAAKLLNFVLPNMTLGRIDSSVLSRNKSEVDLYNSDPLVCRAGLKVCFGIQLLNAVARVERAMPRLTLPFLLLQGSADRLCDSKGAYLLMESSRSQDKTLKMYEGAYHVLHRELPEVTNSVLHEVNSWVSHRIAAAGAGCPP

inhibition at 1 µM [1] [%] | inhibition at 1 µM [2] [%] | IC50 [1] [nM] | IC50 [2] [nM] | Structure (SMILES)
≥ 75 | 0 to 25 |  |  | CC(=O)N(C)c1cnn(C(=O)N2C[C@H]3C[C@H](N(Cc4ccc(Cl)cc4)C(C)=O)C[C@H]3C2)c1 [Example 174, N-(4-chlorobenzyl)-N-(trans-2-(4-(N-methylacetamido)-1H-pyrazole-1-carbonyl)octahydrocyclopenta[c]pyrrol-5-yl)acetamide]
50 to 75 | ≥ 75 | 1000 to 10000 | ≤ 100 | CC(=O)N(C)c1cnn(C(=O)N2CCC3(CCN(Cc4cccc(Cl)c4)C3)C2)c1 (stereo not shown) [Example 78, N-(1-(7-(3-chlorobenzyl)-2,7-diazaspiro[4.4]nonane-2-carbonyl)-1H-pyrazol-4-yl)-N-methylacetamide]
50 to 75 | ≥ 75 |  |  | CS(=O)(=O)Nc1cnn(C(=O)N2CCC3(CCN(Cc4ccc(-c5nccs5)cc4Cl)C3)C2)c1 (stereo not shown) [Example 287, N-(1-(7-(2-chloro-4-(thiazol-2-yl)benzyl)-2,7-diazaspiro[4.4]nonane-2-carbonyl)-1H-pyrazol-4-yl)methanesulfonamide]
50 to 75 | 0 to 25 |  |  | CC(=O)N(C)c1cnn(C(=O)N2CCN(Cc3ccc(CN4CCOCC4)cc3)CC2)c1 [Example 199, N-methyl-N-(1-(4-(4-(morpholinomethyl)benzyl)piperazine-1-carbonyl)-1H-pyrazol-4-yl)acetamide]
≥ 75 | ≥ 75 | ≤ 100 | ≤ 100 | CC(=O)N(C)c1cnn(C(=O)N2CC3CN(Cc4cc(Cl)cc(N5CCN(C6CC6)CC5)c4)CC3C2)c1 (stereo not shown) [Example 120, N-(1-(5-(3-chloro-5-(4-cyclopropylpiperazin-1-yl)benzyl)octahydropyrrolo[3,4-c]pyrrole-2-carbonyl)-1H-pyrazol-4-yl)-N-methylacetamide]
≥ 75 | ≥ 75 |  |  | CC(=O)N(C)c1cnn(C(=O)N2CC3CN(Cc4ccc(Oc5cncnc5)cc4C(F)(F)F)CC3C2)c1 (stereo not shown) [Example 265, N-methyl-N-(1-(5-(4-(pyrimidin-5-yloxy)-2-(trifluoromethyl)benzyl)octahydropyrrolo [3,4-c]pyrrole-2-carbonyl)-1H-pyrazol-4-yl)acetamide]
≥ 75 | ≥ 75 | ≤ 100 | 100 to 1000 | CC(=O)N(C)c1cnn(C(=O)N2CCN(Cc3ccc(N4CCOCC4)cc3Cl)CC2)c1 [Example 203, N-(1-(4-(2-chloro-4-morpholinobenzyl)piperazine-1-carbonyl)-1H-pyrazol-4-yl)-N-methylacetamide]
≥ 75 | ≥ 75 |  |  | CC(=O)N(C)c1cnn(C(=O)N2C[C@H]3C[C@@H](N(C)Cc4cc(N5CCCC5)cc(C(F)(F)F)c4)C[C@H]3C2)c1 [Example 154, N-methyl-N-(1-(cis-5-(methyl(3-(pyrrolidin-1-yl)-5-(trifluoromethyl)benzyl)amino)octahydrocyclopenta[c]pyrrole-2-carbonyl)-1H-pyrazol-4-yl)acetamide]
≥ 75 | ≥ 75 | ≤ 100 | ≤ 100 | CC(=O)N(C)c1cnn(C(=O)N2CC3CN(Cc4ccc(Oc5ccccc5)cc4)CC3C2)c1 (stereo not shown) [Example 241, N-methyl-N-(1-(5-(4-phenoxybenzyl)octahydropyrrolo[3,4-c]pyrrole-2-carbonyl)-1H-pyrazol-4-yl)acetamide]
≥ 75 | ≥ 75 |  |  | CC(=O)N(C)c1cnn(C(=O)N2CCC3(CC2)CN(Cc2cccc(C)c2)C3)c1 [Example 36, N-methyl-N-(1-(2-(3-methylbenzyl)-2,7-diazaspiro[3.5]nonane-7-carbonyl)-1H-pyrazol-4-yl)acetamide]
≥ 75 | ≥ 75 |  |  | CC(=O)N(C)c1cnn(C(=O)N2C[C@H]3C[C@H](N(C)Cc4cc(C(F)(F)F)ccc4C(F)(F)F)C[C@H]3C2)c1 [Example 146, N-(1-(trans-5-((2,5-bis(trifluoromethyl)benzyl)(methyl)amino)octahydrocyclopenta[c]pyrrole-2-carbonyl)-1H-pyrazol-4-yl)-N-methylacetamide]
≥ 75 | ≥ 75 | ≤ 100 | ≤ 100 | CC(=O)N(C)c1cnn(C(=O)N2CCC3(CC2)CN(Cc2cccc(Cl)c2)C3)c1 [Example 34, N-(1-(2-(3-chlorobenzyl)-2,7-diazaspiro[3.5]nonane-7-carbonyl)-1H-pyrazol-4-yl)-N-methylacetamide]
≥ 75 | ≥ 75 | ≤ 100 | ≤ 100 | CC(=O)N(C)c1cnn(C(=O)N2CC3CN(Cc4ccc(Cl)c(C(F)(F)F)c4)CC3C2)c1 (stereo not shown) [Example 98, N-(1-(5-(4-chloro-3-(trifluoromethyl)benzyl)octahydropyrrolo[3,4-c]pyrrole-2-carbonyl)-1H-pyrazol-4-yl)-N-methylacetamide]
≥ 75 | ≥ 75 | ≤ 100 | ≤ 100 | CC(=O)N(C)c1cnn(C(=O)N2CC3CN(Cc4cccc(Oc5cccc(Cl)c5)c4)CC3C2)c1 (stereo not shown) [Example 244, N-(1-(5-(3-(3-chlorophenoxy)benzyl)octahydropyrrolo [3,4-c]pyrrole-2-carbonyl)-1H-pyrazol-4-yl)-N-methylacetamide]
≥ 75 | ≥ 75 | 100 to 1000 | 100 to 1000 | CC(=O)N(C)c1cnn(C(=O)N2C[C@H]3C[C@@H](N(C)Cc4ccc(Cl)cc4)C[C@H]3C2)c1 [Example 143, N-(1-(cis-5-((4-chlorobenzyl)(methyl)amino)octahydrocyclopenta[c]pyrrole-2-carbonyl)-1H-pyrazol-4-yl)-N-methylacetamide]
≥ 75 | ≥ 75 | ≤ 100 | ≤ 100 | CC(=O)N(C)c1cnn(C(=O)N2CC3CN(Cc4ccc(C(F)(F)F)c(N5CCOCC5)c4)CC3C2)c1 (stereo not shown) [Example 124, N-methyl-N-(1-(5-(3-morpholino-4-(trifluoromethyl)benzyl)octahydropyrrolo[3,4-c]pyrrole-2-carbonyl)-1H-pyrazol-4-yl)acetamide]
≥ 75 | ≥ 75 |  |  | CC(=O)N(C)c1cnn(C(=O)N2C[C@H]3C[C@H](N(C)Cc4cc(Cl)ccc4Cl)C[C@H]3C2)c1 [Example 165, N-(1-(trans-5-((2,5-dichlorobenzyl)(methyl)amino)octahydrocyclopenta[c]pyrrole-2-carbonyl)-1H-pyrazol-4-yl)-N-methylacetamide]
≥ 75 | ≥ 75 | 100 to 1000 | 100 to 1000 | CC(=O)N(C)c1cnn(C(=O)N2CCN(Cc3ccccc3C)CC2)c1 [Example 212, N-methyl-N-(1-(4-(2-methylbenzyl)piperazine-1-carbonyl)-1H-pyrazol-4-yl)acetamide]
≥ 75 | ≥ 75 | ≤ 100 | ≤ 100 | CC(=O)N(C)c1cnn(C(=O)N2CC3CN(Cc4ccc(Oc5ccc(Cl)cc5)cc4)CC3C2)c1 (stereo not shown) [Example 245, N-(1-(5-(4-(4-chlorophenoxy)benzyl)octahydropyrrolo [3,4-c]pyrrole-2-carbonyl)-1H-pyrazol-4-yl)-N-methylacetamide]
≥ 75 | ≥ 75 | ≤ 100 | ≤ 100 | CC(=O)N(C)c1cnn(C(=O)N2CC3CN(Cc4ccc(C(F)(F)F)c(N5CCCC5)c4)CC3C2)c1 (stereo not shown) [Example 130, N-methyl-N-(1-(5-(3-(pyrrolidin-1-yl)-4-(trifluoromethyl)benzyl)octahydropyrrolo[3,4-c]pyrrole-2-carbonyl)-1H-pyrazol-4-yl)acetamide]
≥ 75 | ≥ 75 |  |  | CC(=O)N(C)c1cnn(C(=O)N2CCC3(CCN(Cc4ccc(-c5nccs5)cc4Cl)C3)C2)c1 (stereo not shown) [Example 269, N-(1-(7-(2-chloro-4-(thiazol-2-yl)benzyl)-2,7-diazaspiro[4.4]nonane-2-carbonyl)-1H-pyrazol-4-yl)-N-methylacetamide]
≥ 75 | ≥ 75 |  |  | CS(=O)(=O)Nc1cnn(C(=O)N2CCN(Cc3cccc(Oc4ccc(Cl)cc4)c3)CC2)c1 [Example 296, N-(1-(4-(3-(4-chlorophenoxy)benzyl)piperazine-1-carbonyl)-1H-pyrazol-4-yl)methanesulfonamide]
≥ 75 | ≥ 75 |  |  | CC(=O)N(C)c1cnn(C(=O)N2CC3CN(Cc4ccc(N5CCOCC5)cc4C)CC3C2)c1 (stereo not shown) [Example 17, N-methyl-N-(1-(5-(2-methyl-4-morpholinobenzyl)octahydropyrrolo[3,4-c]pyrrole-2-carbonyl)-1H-pyrazol-4-yl)acetamide]
≥ 75 | 50 to 75 |  |  | CS(=O)(=O)Nc1cnn(C(=O)N2CCN(Cc3ccc(-c4ccccc4)cc3OCc3ccccc3)CC2)c1 [Example 224, N-(1-(4-((3-(benzyloxy)-[1,1′-biphenyl]-4-yl)methyl)piperazine-1-carbonyl)-1H-pyrazol-4-yl)methanesulfonamide]
≥ 75 | ≥ 75 |  |  | CC(=O)N(C)c1cnn(C(=O)N2C[C@H]3C[C@H](NCc4ccc(Cl)cc4)C[C@H]3C2)c1 [Example 138, N-(1-(trans-5-(4-chlorobenzylamino)octahydrocyclopenta[c]pyrrole-2-carbonyl)-1H-pyrazol-4-yl)-N-methylacetamide]
50 to 75 | 50 to 75 |  |  | COc1cccc(CN2CC3(CCN(C(=O)n4cc(N(C)C(C)=O)cn4)CC3)C2)c1 [Example 37, N-(1-(2-(3-methoxybenzyl)-2,7-diazaspiro[3.5]nonane-7-carbonyl)-1H-pyrazol-4-yl)-N-methylacetamide]
